Laboratory results taken from US20080026447A1, “Assay for determining factor viia inhibitor concentration in plasma samples” (Bristol-Myers Squibb Company, priority 2006, published 2008).
Like-named read-outs stand apart in the source and are kept apart here.

Experiments:
factor VIIa [1] = biological target: T1, factor VIIa (Homo sapiens, UniProt P08709); assay: Factor VIIa substrate hydrolysis (amidolytic activity) in factor X deficient plasma; assay type: biochemical; conditions: 1 μM inhibitor, 85% factor X deficient plasma, 0.5 nM factor VIIa, D-Ile-Pro-Arg-AFC, FIG. 2
T1 construct: proteolytic cleavage of factor X to factor Xa, factor IX to factor IXa and additional factor VII to factor VIIa
Protocol: The assay was carried out in a fluorescence plate reader at room temperature. factor VIIa substrate hydrolysis (amidolytic activity on the substrate) was monitored for 30 minutes at an excitation wavelength of 400 nm and an emission wavelength of 535 nm. […] Such interference is primarily due to hydrolysis of the relatively nonspecific peptide substrate by downstream proteases such as factor Xa and thrombin.

factor VIIa [2] = biological target: T1, factor VIIa; assay: Factor VIIa inhibition in buffer and in factor X deficient human plasma; assay type: biochemical; conditions: 2.5 nM factor VIIa, FIG. 5
Protocol: Protein binding of the inhibitor 2-(1-aminoisoquinolin-6-ylamino)-2-(3-ethoxy-4-isopropoxyphenyl)-N-(4-hydroxyphenylsulfonyl)acetamide was determined by measuring factor VIIa inhibition by the test inhibitor in buffer and then in factor X deficient human plasma. […] In FIG. 5, one set of samples contained 2.5 nM factor VIIa, 28 nM soluble tissue factor, 10 mM CaCl2 100 nM D-Ile-Pro-Arg-AFC and varying concentrations of factor VIIa inhibitor 2-(1-aminoisoquinolin-6-ylamino)-2-(3-ethoxy-4-isopropoxyphenyl)-N-(4-hydroxyphenylsulfonyl)acetamide (Compound B). The second sample set was identical to the first set with the addition of 90% factor X deficient plasma. All samples were diluted in 50 mM HEPES pH 7.5, 150 mM NaCl, 0.1% polyethyleneglycol 8000 and 0.1% bovine serum albumin. The assay was carried out in a fluorescence plate reader at room temperature at an excitation wavelength of 400 nm and an emission wavelength of 535 nm. The fraction of the inhibitor bound to plasma protein was calculated according to the following formula: 1-IC50 in buffer/IC50 in plasma. […] Protein binding of 2-(1-aminoisoquinolin-6-ylamino)-2-(3-ethoxy-4-isopropoxyphenyl)-N-(4-hydroxyphenylsulfonyl)acetamide was determined to be 99.2%.

[3] = Binding of factor VIIa inhibitor to plasma proteins (shift in IC50, buffer vs plasma); assay type: in vitro ADME; conditions: pH 7.5, probe D-Ile-Pro-Arg-AFC (fluorogenic factor VIIa substrate); factor X deficient human plasma; 1-IC50 in buffer/IC50 in plasma; read-out: Protein binding (converted)
Source text: Some embodiments of the present invention provide methods for determining the plasma protein binding affinity of a factor VIIa inhibitor for other plasma proteins. Factor VIIa inhibitors having low plasma protein binding affinity for plasma proteins other than factor VIIa are preferred because more unbound factor VIIa inhibitor is available to bind and inhibit factor VIIa. The term “low protein binding factor VIIa inhibitor” as used herein means, a factor VIIa inhibitor that decreases the activity of factor VIIa in the presence or absence of other plasma proteins. […] The fraction of inhibitor bound to plasma protein is calculated by 1-IC50 in buffer/IC50 in plasma.
Protein binding of the inhibitor 2-(1-aminoisoquinolin-6-ylamino)-2-(3-ethoxy-4-isopropoxyphenyl)-N-(4-hydroxyphenylsulfonyl)acetamide was determined by measuring factor VIIa inhibition by the test inhibitor in buffer and then in factor X deficient human plasma. […] The assay was carried out in a fluorescence plate reader at room temperature at an excitation wavelength of 400 nm and an emission wavelength of 535 nm. The fraction of the inhibitor bound to plasma protein was calculated according to the following formula: 1-IC50 in buffer/IC50 in plasma. […] Protein binding of 2-(1-aminoisoquinolin-6-ylamino)-2-(3-ethoxy-4-isopropoxyphenyl)-N-(4-hydroxyphenylsulfonyl)acetamide was determined to be 99.2%.

[4] = Factor VIIa inhibitor concentration in plasma samples from dosed rabbits (functional assay); assay type: in vivo; conditions: sample B6, plasma from dosed rabbit; IC50 of standard curve × plasma dilution factor giving 50% inhibition
Protocol: Plasma was prepared from tested blood samples drawn from rabbits dosed with (R)-N-(5-acetamido-2-(ethylsulfonyl)benzyl)-2-(1-aminoisoquinolin-6-ylamino)-2-(3,4-dimethoxyphenyl)acetamide (Compound C) into buffered citrate. The samples were diluted and combined with tissue factor, factor VIIa, Ca^++, factor Xa inhibitor 2-(3-Aminomethyl-phenyl)-5-trifluoromethyl-2H-pyrazole-3-carboxylic acid (3-fluoro-2′-methanesulfonyl-biphenyl-4-yl)-amide and fluorogenic factor VIIa substrate D-Ile-Pro-Arg-AFC. The inhibitory activity of the tested sample was measured by monitoring the fluorescence of the D-Ile-Pro-Arg-AFC product and comparing the activity to standard curve constructed with plasma from an undosed rabbit spiked with known concentrations of the (R)-N-(5-acetamido-2-(ethylsulfonyl)benzyl)-2-(1-aminoisoquinolin-6-ylamino)-2-(3,4-dimethoxyphenyl)acetamide. […] The assay was carried out in a fluorescent plate reader at room temperature at an excitation wavelength of 400 nm and an emission wavelength of 535 nm. […] IC50 of the standard curve was calculated using floating top and bottom to account for the background signal not originating from factor VIIa activity. […] The concentration of (R)-N-(5-acetamido-2-(ethylsulfonyl)benzyl)-2-(1-aminoisoquinolin-6-ylamino)-2-(3,4-dimethoxyphenyl)acetamide present in sample B6 was calculated to be 338.5 nM. […]

T1 sequence (P08709 61-212 limits assumed): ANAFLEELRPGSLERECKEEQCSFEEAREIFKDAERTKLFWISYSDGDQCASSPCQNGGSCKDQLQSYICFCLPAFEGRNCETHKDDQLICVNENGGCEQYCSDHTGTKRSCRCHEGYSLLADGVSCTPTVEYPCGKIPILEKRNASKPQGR
T1 sequence (P08709 213-466 limits assumed): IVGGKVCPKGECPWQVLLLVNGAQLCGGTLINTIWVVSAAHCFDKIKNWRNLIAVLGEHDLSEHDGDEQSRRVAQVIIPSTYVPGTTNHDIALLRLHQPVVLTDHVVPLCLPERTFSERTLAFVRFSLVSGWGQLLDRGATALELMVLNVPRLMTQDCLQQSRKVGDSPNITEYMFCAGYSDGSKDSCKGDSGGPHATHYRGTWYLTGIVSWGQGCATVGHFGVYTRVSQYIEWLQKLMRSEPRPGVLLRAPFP
T1 sequence (P13726 with tags, fused parts or gaps partner limits assumed): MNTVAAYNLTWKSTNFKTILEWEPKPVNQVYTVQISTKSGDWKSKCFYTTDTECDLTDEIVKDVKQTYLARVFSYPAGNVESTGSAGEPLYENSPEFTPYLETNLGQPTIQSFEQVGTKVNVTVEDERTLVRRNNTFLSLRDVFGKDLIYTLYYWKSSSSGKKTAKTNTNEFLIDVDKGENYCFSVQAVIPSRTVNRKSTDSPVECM

In the case of `COc1cc([C@@H]2Nc3ccc(C(=N)N)cc3[C@H]3c4ccccc4C[C@H]32)c(-c2ccc(C(=O)O)cc2)cc1O` [2′-((6R,6aR,11bR)-2-carbamimidoyl-6,6a,7,11b-tetrahydro-5H-indeno[2,1-c]quinolin-6-yl)-5′-hydroxy-4′-methoxybiphenyl-4-carboxylic acid], the “inhibition of amidolytic activity in factor X deficient plasma” value (factor VIIa [1]) is reported as “most of it is inhibited”.

In the case of `CCOc1cc(C(Nc2ccc3c(N)nccc3c2)C(=O)NS(=O)(=O)c2ccc(O)cc2)ccc1OC(C)C` (centres unmarked) [Compound B, 2-(1-aminoisoquinolin-6-ylamino)-2-(3-ethoxy-4-isopropoxyphenyl)-N-(4-hydroxyphenylsulfonyl)acetamide], the IC50 (factor VIIa [2]; 90% factor X deficient plasma, read-out: IC50 in plasma) is reported as 3300 nM, the IC50 (factor VIIa [2]; buffer without plasma, read-out: IC50 in buffer) is reported as 26 nM and the fraction unbound [3] is reported as 0.008.

In the case of `CCS(=O)(=O)c1ccc(NC(C)=O)cc1CNC(=O)[C@H](Nc1ccc2c(N)nccc2c1)c1ccc(OC)c(OC)c1` [Compound C, (R)-N-(5-acetamido-2-(ethylsulfonyl)benzyl)-2-(1-aminoisoquinolin-6-ylamino)-2-(3,4-dimethoxyphenyl)acetamide], the “concentration present in plasma sample” value [4] is reported as 338.5 nM.
